Among the data in patent publication US12486267B2, “Imidazo[1,2-A]pyridine and [1,2,4]triazolo[1,5-A]pyridine derivatives as TLR9 inhibitors for the treatment of fibrosis” (BRISTOL-MYERS SQUIBB COMPANY, priority 2020, dated 2025) are IC50 values, retold here.

pIC50: −log10 of the molar value. A value given as a limit tells only on which side of the number the result lay.

Type in all cases: cell-based
Assay [1] addresses T1, human TLR9 (Homo sapiens, UniProt Q9NR96).
T1 sequence (Q9NR96 26-1032): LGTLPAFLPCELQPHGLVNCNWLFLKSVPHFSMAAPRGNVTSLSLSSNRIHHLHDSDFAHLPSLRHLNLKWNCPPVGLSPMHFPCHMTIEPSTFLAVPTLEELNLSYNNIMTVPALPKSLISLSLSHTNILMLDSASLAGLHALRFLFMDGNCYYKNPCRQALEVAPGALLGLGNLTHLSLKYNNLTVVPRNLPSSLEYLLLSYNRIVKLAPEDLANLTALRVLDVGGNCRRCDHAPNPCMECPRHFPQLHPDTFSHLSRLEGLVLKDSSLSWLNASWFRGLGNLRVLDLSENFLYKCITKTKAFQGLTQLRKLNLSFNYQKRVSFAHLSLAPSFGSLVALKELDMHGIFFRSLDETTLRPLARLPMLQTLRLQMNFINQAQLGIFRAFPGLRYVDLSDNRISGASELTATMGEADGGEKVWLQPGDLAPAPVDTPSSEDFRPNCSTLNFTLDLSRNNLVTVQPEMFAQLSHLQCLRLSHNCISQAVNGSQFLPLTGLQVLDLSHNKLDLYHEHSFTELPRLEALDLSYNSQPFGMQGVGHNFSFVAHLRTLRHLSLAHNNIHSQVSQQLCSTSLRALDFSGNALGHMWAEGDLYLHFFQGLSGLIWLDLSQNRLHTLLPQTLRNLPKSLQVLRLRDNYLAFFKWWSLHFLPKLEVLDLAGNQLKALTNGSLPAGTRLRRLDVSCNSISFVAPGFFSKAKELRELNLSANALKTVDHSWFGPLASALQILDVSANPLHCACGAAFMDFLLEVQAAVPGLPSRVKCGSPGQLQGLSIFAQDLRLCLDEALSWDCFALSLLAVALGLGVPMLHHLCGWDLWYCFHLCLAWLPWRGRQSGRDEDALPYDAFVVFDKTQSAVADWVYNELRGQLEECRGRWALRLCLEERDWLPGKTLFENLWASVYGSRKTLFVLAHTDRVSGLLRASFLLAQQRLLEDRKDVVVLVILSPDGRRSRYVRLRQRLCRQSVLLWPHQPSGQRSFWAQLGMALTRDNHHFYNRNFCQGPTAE
Description: TLR9 inhibition reporter assay (HEK-Blue cells, SEAP reporter). To be noted: HEK-Blue cells overexpressing human TLR9; stimulated with ODN2006 5 nM; 22 hour incubation; SEAP readout. The gist of the method:
(§1)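 HEK-Blue cells with an NF-κB/AP-1-driven SEAP reporter were pre-treated 30 min at room temperature with compound (0.05 nM–50 μM), then stimulated with gardiquimod 7.5 μM (TLR7), R848 15.9 μM (TLR8) or ODN2006 5 nM (TLR9). After 22 h at 37 °C, SEAP was read; % inhibition was referenced to agonist+DMSO and known-inhibitor wells.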

For assay [2], the target named is T2, human TLR7 (Homo sapiens, UniProt Q9NYK1).
T2 sequence (Q9NYK1 27-1049): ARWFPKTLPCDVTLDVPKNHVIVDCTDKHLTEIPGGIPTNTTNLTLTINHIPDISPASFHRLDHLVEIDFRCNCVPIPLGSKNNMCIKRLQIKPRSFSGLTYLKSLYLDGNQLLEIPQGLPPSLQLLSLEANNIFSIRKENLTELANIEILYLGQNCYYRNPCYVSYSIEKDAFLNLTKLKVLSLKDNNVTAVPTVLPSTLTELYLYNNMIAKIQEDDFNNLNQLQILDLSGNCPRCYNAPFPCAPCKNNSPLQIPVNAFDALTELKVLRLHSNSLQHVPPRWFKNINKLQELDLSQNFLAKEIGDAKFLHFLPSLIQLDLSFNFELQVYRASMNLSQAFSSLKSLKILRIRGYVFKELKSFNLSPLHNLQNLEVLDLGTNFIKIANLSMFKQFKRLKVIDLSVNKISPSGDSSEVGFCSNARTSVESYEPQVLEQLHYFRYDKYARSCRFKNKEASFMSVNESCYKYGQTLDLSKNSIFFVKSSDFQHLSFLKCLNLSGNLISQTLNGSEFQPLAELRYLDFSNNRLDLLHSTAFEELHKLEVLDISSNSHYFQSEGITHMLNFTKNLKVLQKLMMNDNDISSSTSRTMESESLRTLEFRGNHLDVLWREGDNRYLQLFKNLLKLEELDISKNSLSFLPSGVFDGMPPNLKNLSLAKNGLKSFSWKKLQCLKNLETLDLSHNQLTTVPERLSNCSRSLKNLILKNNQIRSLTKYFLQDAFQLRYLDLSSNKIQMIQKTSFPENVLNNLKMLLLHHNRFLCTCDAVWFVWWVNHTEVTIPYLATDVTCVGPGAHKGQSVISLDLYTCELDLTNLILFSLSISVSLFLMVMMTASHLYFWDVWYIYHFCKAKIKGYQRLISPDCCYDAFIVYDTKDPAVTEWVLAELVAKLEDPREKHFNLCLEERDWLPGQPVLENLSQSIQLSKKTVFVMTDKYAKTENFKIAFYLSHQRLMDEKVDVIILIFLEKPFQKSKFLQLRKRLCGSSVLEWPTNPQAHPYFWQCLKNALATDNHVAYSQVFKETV
In words: TLR7 inhibition reporter assay (HEK-Blue cells, SEAP reporter). The conditions noted are these: HEK-Blue cells overexpressing human TLR7; stimulated with gardiquimod 7.5 μM; 22 hour incubation; SEAP readout. The gist of the method:
as §1

Assay [3] has as its target T3, human TLR8 (Homo sapiens, UniProt Q9NR97).
T3 sequence (Q9NR97 27-1041): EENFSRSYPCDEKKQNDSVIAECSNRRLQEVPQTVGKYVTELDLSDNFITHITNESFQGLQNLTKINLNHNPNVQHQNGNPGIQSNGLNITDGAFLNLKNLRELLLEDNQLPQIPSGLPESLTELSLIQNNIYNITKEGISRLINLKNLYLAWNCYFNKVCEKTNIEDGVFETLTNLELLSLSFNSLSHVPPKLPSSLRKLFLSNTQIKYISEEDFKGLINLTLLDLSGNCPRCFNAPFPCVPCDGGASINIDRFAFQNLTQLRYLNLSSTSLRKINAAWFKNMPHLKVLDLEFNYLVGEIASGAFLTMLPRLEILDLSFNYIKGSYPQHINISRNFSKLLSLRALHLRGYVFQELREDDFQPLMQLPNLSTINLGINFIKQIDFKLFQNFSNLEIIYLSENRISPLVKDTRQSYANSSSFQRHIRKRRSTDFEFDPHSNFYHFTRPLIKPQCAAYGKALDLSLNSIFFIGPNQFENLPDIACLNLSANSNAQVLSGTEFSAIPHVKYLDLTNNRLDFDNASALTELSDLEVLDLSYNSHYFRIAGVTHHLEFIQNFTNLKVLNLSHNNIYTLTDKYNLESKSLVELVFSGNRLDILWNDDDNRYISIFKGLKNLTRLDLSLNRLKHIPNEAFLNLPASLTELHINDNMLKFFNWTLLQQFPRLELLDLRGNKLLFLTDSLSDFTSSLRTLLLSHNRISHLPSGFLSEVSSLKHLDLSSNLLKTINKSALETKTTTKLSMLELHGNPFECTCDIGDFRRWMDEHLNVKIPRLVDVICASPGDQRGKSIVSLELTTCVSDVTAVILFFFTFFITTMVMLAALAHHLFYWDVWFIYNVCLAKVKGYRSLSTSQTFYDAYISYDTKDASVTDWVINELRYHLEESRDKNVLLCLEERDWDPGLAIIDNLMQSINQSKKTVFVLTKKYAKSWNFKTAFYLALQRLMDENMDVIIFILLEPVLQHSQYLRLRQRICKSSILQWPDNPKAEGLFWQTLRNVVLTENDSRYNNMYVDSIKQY
In words: TLR8 inhibition reporter assay (HEK-Blue cells, SEAP reporter). To be noted: HEK-Blue cells overexpressing human TLR8; stimulated with R848 15.9 μM; 22 hour incubation; SEAP readout. The method in brief:
as §1
(In general: A reporter such as luciferase makes a cellular process visible.)

What is called pIC50 is −log10 of the IC50, conventionally taken in molar units. The low end stands for a large IC50, the high end for a small IC50. For `Cc1cc(C2CCN(C3CC4CCC(C3)N4CC3CC3)CC2)cn2cc(-c3ccc(S(C)(=O)=O)cc3)nc12` (single isomer, unassigned) [Example 87, 6-(1-(8-(cyclopropylmethyl)-8-azabicyclo[3.2.1]octan-3-yl)piperidin-4-yl)-8-methyl-2-(4-(methylsulfonyl)phenyl) imidazo[1,2-a]pyridine], the results for the negative-log IC50 (pIC50) in assay [1], in assay [2] and in assay [3] were 7.55, 5.36 and < 4.60, respectively.
For `Cc1cc(C2CCN(C3CC4CCC(C3)N4CC3CCC3)CC2)cn2cc(-c3ccc(S(C)(=O)=O)cc3)nc12` (single isomer, unassigned) [Example 89, 6-(1-(8-(cyclobutylmethyl)-8-azabicyclo[3.2.1]octan-3-yl)piperidin-4-yl)-8-methyl-2-(4-(methylsulfonyl)phenyl)imidazo[1,2-a]pyridine], the pIC50 in assay [1] was 6.48; in assay [2], 5.66; in assay [3], < 4.30.
In the same order, the values of `CC(C)CN1C2CCC1CC(N1CCC(c3cc(F)c4nc(-c5ccc(S(C)(=O)=O)cc5)cn4c3)CC1)C2` (single isomer, unassigned) [Example 113, 8-fluoro-6-(1-(8-isobutyl-8-azabicyclo[3.2.1]octan-3-yl)piperidin-4-yl)-2-(4-(methylsulfonyl)phenyl)imidazo[1,2-a]pyridine] are 7.51, 6.22 and < 4.30.
In the same order, the values of `CC(C)CN1C2CCC1CC(N1CCC(c3cc(F)c4nc(-c5ccc(S(C)(=O)=O)cc5)cn4c3)CC1)C2` (single isomer, unassigned) [Example 114, 8-fluoro-6-(1-(8-isobutyl-8-azabicyclo[3.2.1]octan-3-yl)piperidin-4-yl)-2-(4-(methylsulfonyl)phenyl)imidazo[1,2-a]pyridine] are 7.18, 5.70 and 4.77.
The corresponding values for `CS(=O)(=O)c1ccc(-c2cn3cc(C4CCN(C5CC6CCC(C5)N6CC5CC5)CC4)cc(F)c3n2)cc1` (single isomer, unassigned) [Example 115, 6-(1-(8-(cyclopropylmethyl)-8-azabicyclo[3.2.1]octan-3-yl)piperidin-4-yl)-8-fluoro-2-(4-(methylsulfonyl)phenyl)imidazo[1,2-a]pyridine] are 7.37, 5.77 and 4.31.
For `CS(=O)(=O)c1ccc(-c2cn3cc(C4CCN(C5CC6CCC(C5)N6CC5CC5)CC4)cc(F)c3n2)cc1` (single isomer, unassigned) [Example 116, 6-(1-(8-(cyclopropylmethyl)-8-azabicyclo[3.2.1]octan-3-yl)piperidin-4-yl)-8-fluoro-2-(4-(methylsulfonyl)phenyl)imidazo[1,2-a]pyridine], the pIC50 in assay [1] is 8.41; in assay [2], 6.15; in assay [3] it was 4.85.
In the same order, the values of `CS(=O)(=O)c1ccc(-c2cn3cc(C4CCN(C5CC6CCC(C5)N6C5CCC5)CC4)cc(F)c3n2)cc1` (single isomer, unassigned) [Example 117, 6-(1-(8-cyclobutyl-8-azabicyclo[3.2.1]octan-3-yl)piperidin-4-yl)-8-fluoro-2-(4-(methylsulfonyl)phenyl)imidazo[1,2-a]pyridine] are 7.66, 5.82 and 4.70.
The corresponding values for `CS(=O)(=O)c1ccc(-c2cn3cc(C4CCN(C5CC6CCC(C5)N6C5CCC5)CC4)cc(F)c3n2)cc1` (single isomer, unassigned) [Example 118, 6-(1-(8-cyclobutyl-8-azabicyclo[3.2.1]octan-3-yl)piperidin-4-yl)-8-fluoro-2-(4-(methylsulfonyl)phenyl)imidazo[1,2-a]pyridine] are 7.68, 5.96 and 4.77.
In the same order, the values of `CS(=O)(=O)c1ccc(-c2cn3cc(C4CCN(C5CC6CCC(C5)N6C5COC5)CC4)cc(F)c3n2)cc1` (single isomer, unassigned) [Example 119, 8-fluoro-2-(4-(methylsulfonyl)phenyl)-6-(1-(8-(oxetan-3-yl)-8-azabicyclo[3.2.1]octan-3-yl)piperidin-4-yl)imidazo[1,2-a]pyridine] are 7.52, 4.97 and < 4.30.
On to `CS(=O)(=O)c1ccc(-c2cn3cc(C4CCN(C5CC6CCC(C5)N6C5COC5)CC4)cc(F)c3n2)cc1` (single isomer, unassigned) [Example 120, 8-fluoro-2-(4-(methylsulfonyl)phenyl)-6-(1-(8-(oxetan-3-yl)-8-azabicyclo[3.2.1]octan-3-yl)piperidin-4-yl)imidazo[1,2-a]pyridine], for which the negative-log IC50 (pIC50) is 6.15 in assay [1], 4.78 in assay [2] and < 4.30 in assay [3].
